From patent US20050267156A1, “Broadspectrum 2-amino-benzothiazole sulfonamide hiv protease inhibitors” (Tibotec Pharmaceuticals Ltd., priority 2002, published 2005) come the findings set out here.

What all share (format): cell-based
The test system of one series is HIV-1 strain LAI. Put plainly: Cellular anti-HIV assay (MT4/MTT), wild type. The note with it: MT4 cells, read-out: WT (pEC50) (converted). The protocol:
The compounds of the present invention were examined for anti-viral activity in a cellular assay. […] The cellular assay was performed according to the following procedure. HIV- or mock-infected MT4 cells were incubated for five days in the presence of various concentrations of the inhibitor. […] Cell viability is measured by measuring the concentration of MTT, a yellow, water soluble tetrazolium dye that is converted to a purple, water insoluble formazan in the mitochondria of living cells only. Upon solubilization of the resulting formazan crystals with isopropanol, the absorbance of the solution is monitored at 540 nm. The values correlate directly to the number of living cells remaining in the culture at the completion of the five-day incubation. The inhibitory activity of the compound was monitored on the virus-infected cells and was expressed as EC50 and EC90. These values represent the amount of the compound required to protect 50% and 90%, respectively, of the cells from the cytopathogenic effect of the virus. […] The selectivity index (SI) (ratio CC50/EC50) is an indication of the selectivity of the anti-HIV activity of the inhibitor. Wherever results are reported as e.g. pEC50 or pCC50 values, the result is expressed as the negative logarithm of the result expressed as EC50 or CC50 respectively.

For the next series, the system named is mutant HIV strain A. Put plainly: microbe, parasite or virus in culture. The note with it: for fold resistance Strain A: FR=EC50 (mutant strain)/EC50 (HIV-1 strain LAI); for EC50: Human immunodeficiency virus 1, MT4, read-out: pEC50 Strain A, mutant HIV strain A, MT4 cells (converted). The procedure:
(§1) HIV- or mock-infected MT4 cells were incubated for five days in the presence of various concentrations of the inhibitor. […] Cell viability is measured by measuring the concentration of MTT, a yellow, water soluble tetrazolium dye that is converted to a purple, water insoluble formazan in the mitochondria of living cells only. Upon solubilization of the resulting formazan crystals with isopropanol, the absorbance of the solution is monitored at 540 nm. The values correlate directly to the number of living cells remaining in the culture at the completion of the five-day incubation. The inhibitory activity of the compound was monitored on the virus-infected cells and was expressed as EC50 and EC90. These values represent the amount of the compound required to protect 50% and 90%, respectively, of the cells from the cytopathogenic effect of the virus. […] The selectivity index (SI) (ratio CC50/EC50) is an indication of the selectivity of the anti-HIV activity of the inhibitor. Wherever results are reported as e.g. pEC50 or pCC50 values, the result is expressed as the negative logarithm of the result expressed as EC50 or CC50 respectively.

A further series concerns mutant HIV strain B. Put plainly: microbe, parasite or virus in culture. Conditions: for fold resistance Strain B: FR=EC50 (mutant strain)/EC50 (HIV-1 strain LAI); for EC50: Human immunodeficiency virus 1, MT4, read-out: pEC50 Strain B, mutant HIV strain B, MT4 cells (converted). The protocol: as §1
For another series, the system named is mutant HIV strain C. Put plainly: microbe, parasite or virus in culture. Conditions: for fold resistance Strain C: FR=EC50 (mutant strain)/EC50 (HIV-1 strain LAI); for EC50: Human immunodeficiency virus 1, MT4, read-out: pEC50 Strain C, mutant HIV strain C, MT4 cells (converted). The procedure: as §1
The subject of a further series is mutant HIV strain D. Put plainly: microbe, parasite or virus in culture. The note with it: for fold resistance Strain D: FR=EC50 (mutant strain)/EC50 (HIV-1 strain LAI); for EC50: Human immunodeficiency virus 1, MT4, read-out: pEC50 Strain D, mutant HIV strain D, MT4 cells (converted). The procedure:
as §1

For another series, the system named is mutant HIV strain E. Put plainly: microbe, parasite or virus in culture. Conditions: for fold resistance Strain E: FR=EC50 (mutant strain)/EC50 (HIV-1 strain LAI); for EC50: Human immunodeficiency virus 1, MT4, read-out: pEC50 Strain E, mutant HIV strain E, MT4 cells (converted). The procedure: as §1
Series [1] is described as follows: Toxicity on mock-infected cells (MTT). The note with it: human. The procedure:
HIV- or mock-infected MT4 cells were incubated for five days in the presence of various concentrations of the inhibitor. At the end of the incubation period, the replicating virus in the control cultures has killed all HIV-infected cells in the absence of any inhibitor. Cell viability is measured by measuring the concentration of MTT, a yellow, water soluble tetrazolium dye that is converted to a purple, water insoluble formazan in the mitochondria of living cells only. Upon solubilization of the resulting formazan crystals with isopropanol, the absorbance of the solution is monitored at 540 nm. The values correlate directly to the number of living cells remaining in the culture at the completion of the five-day incubation. The inhibitory activity of the compound was monitored on the virus-infected cells and was expressed as EC50 and EC90. These values represent the amount of the compound required to protect 50% and 90%, respectively, of the cells from the cytopathogenic effect of the virus. […] The selectivity index (SI) (ratio CC50/EC50) is an indication of the selectivity of the anti-HIV activity of the inhibitor. Wherever results are reported as e.g. pEC50 or pCC50 values, the result is expressed as the negative logarithm of the result expressed as EC50 or CC50 respectively.

For the next series, the system named is mutant HIV strain F. Put plainly: microbe, parasite or virus in culture. The note with it: for fold resistance Strain F: FR=EC50 (mutant strain)/EC50 (HIV-1 strain LAI); for EC50: Human immunodeficiency virus 1, MT4, read-out: pEC50 Strain F, mutant HIV strain F, MT4 cells (converted). The protocol:
as §1

Where [2] appears, read: Human immunodeficiency virus 1, wild type HIV-1 strain LAI.
Setting [3] is: Human immunodeficiency virus 1, MT4, wild type HIV-1 strain LAI.

Where a name gives a salt, the structure may show the parent alone. Read-outs that look alike come from different tables or passages of the source. A value given as a limit tells only on which side of the number the result lay.

One may read the CC50 as the concentration at which the toxic effect on the cells reaches its halfway point. A higher CC50 goes with better tolerance by the cells. Turning to `CC(C)CN(C[C@@H](O)[C@H](Cc1ccccc1)NC(=O)OC1CCOC1)S(=O)(=O)c1ccc2nc(N)sc2c1` (stereo partly drawn) [Compound 12, {(1S,2R)-3-[(2-amino-benzothiazole-6-sulfonyl)-isobutyl-amino]-1-benzyl-2-hydroxypropyl}-carbamic acid tetrahydro-furan-3-yl ester], in the series with HIV-1 strain LAI (setting [2]), the EC50 is 4.27 nM. Further, in the series with mutant HIV strain A, the “fold resistance Strain A” value is 53.7 and the EC50 is 229 nM. In the series with mutant HIV strain B, the “fold resistance Strain B” value was 1.8 and the EC50 is 7.59 nM. In the series with mutant HIV strain C, the “fold resistance Strain C” value amounted to 44.7 and the EC50 was 191 nM. Further, in the series with mutant HIV strain D, the “fold resistance Strain D” value stood at 6.2 and the EC50 is 26.3 nM. In the series with mutant HIV strain E, the “fold resistance Strain E” value is 1.8 and the EC50 is 7.76 nM. Further, the CC50 at 5 days in series [1] is > 100000 nM.

Take `CNc1nc2ccc(S(=O)(=O)N(CC(C)C)C[C@@H](O)[C@H](Cc3ccccc3)NC(=O)COc3c(C)cc(N)cc3C)cc2s1` [Compound 26, 2-(4-amino-2,6-dimethyl-phenoxy)-N-{(1S,2R)-1-benzyl-2-hydroxy-3-[isobutyl-(2-methylamino-benzothiazole-6-sulfonyl)-amino]-propyl}-acetamide]: in the series with HIV-1 strain LAI (setting [2]), the EC50 is 2.69 nM. Further, in the series on mutant HIV strain A, the “fold resistance Strain A” value was determined as 11.2 and the EC50 was 30.2 nM. In addition, in the series with mutant HIV strain B, the “fold resistance Strain B” value worked out at 1.5 and the EC50 was 3.98 nM. Further, in the series on mutant HIV strain C, the “fold resistance Strain C” value is 2.7 and the EC50 was 7.24 nM. In the series with mutant HIV strain D, the “fold resistance Strain D” value stood at 3.1 and the EC50 is 8.32 nM. Besides, in the series with mutant HIV strain E, the “fold resistance Strain E” value is given as 2.3 and the EC50 was 6.17 nM. Besides, in the series with mutant HIV strain F, the “fold resistance Strain F” value is reported as 20.9 and the EC50 was 56.2 nM.

On to `CC(C)CN(C[C@@H](O)[C@H](Cc1ccccc1)NC(=O)OCc1cncs1)S(=O)(=O)c1ccc2nc(N)sc2c1` [Compound 3, {(1S,2R)-3-[(2-amino-benzothiazole-6-sulfonyl)-isobutyl-amino]-1-benzyl-2-hydroxypropyl}-carbamic acid thiazol-5-ylmethyl ester], for which the EC50 was 4.57 nM in the series on HIV-1 strain LAI (setting [2]); 30.2 nM in the series on mutant HIV strain A; 8.91 nM with mutant HIV strain B; 15.5 nM with mutant HIV strain C; 36.3 nM with mutant HIV strain D; 21.9 nM in the series on mutant HIV strain E. Also, the EC50 with mutant HIV strain F is 53.7 nM. Also, the “fold resistance Strain A” value in the series with mutant HIV strain A is 6.6. For the same compound, in the series on mutant HIV strain B, the “fold resistance Strain B” value was 1.9. For the same compound, the “fold resistance Strain C” value in the series with mutant HIV strain C is 3.4. Moreover, the “fold resistance Strain D” value with mutant HIV strain D is listed as 7.9. The “fold resistance Strain E” value with mutant HIV strain E amounted to 4.8. In the series with mutant HIV strain F, the “fold resistance Strain F” value turned out to be 11.7. In addition, the CC50 at 5 days in series [1] is 74100 nM.

As for `CC(C)CN(C[C@@H](O)[C@H](Cc1ccccc1)NC(=O)OC1COC2OCCC12)S(=O)(=O)c1ccc2nc(N(C)C)sc2c1` (stereo partly drawn) [Compound 6, {(1S,2R)-1-benzyl-3-[(2-dimethylamino-benzothiazole-6-sulfonyl)-isobutyl-amino]-2-hydroxy-propyl}-carbamic acid hexahydro-furo[2,3-b]furan-3-yl ester], the EC50 in the series with HIV-1 strain LAI (setting [2]) is 3.98 nM. In addition, in the series with mutant HIV strain A, the “fold resistance Strain A” value is listed as 50.1 and the EC50 is 200 nM. In the series with mutant HIV strain B, the “fold resistance Strain B” value is 32.4 and the EC50 is 129 nM. In addition, in the series on mutant HIV strain C, the “fold resistance Strain C” value is recorded as 8.5 and the EC50 was 33.9 nM. In the series with mutant HIV strain D, the “fold resistance Strain D” value was 27.5 and the EC50 is 110 nM. In the series on mutant HIV strain F, the “fold resistance Strain F” value is 177.8 and the EC50 is 708 nM. In addition, the 50% cytotoxic concentration (CC50) at 5 days in series [1] was > 100000 nM.

As to `CNc1nc2ccc(S(=O)(=O)N(CC(C)C)C[C@@H](O)[C@H](Cc3ccccc3)NC(=O)OCc3cncs3)cc2s1.O=C(O)C(F)(F)F` [Compound 19, {(1S,2R)-1-benzyl-2-hydroxy-3-[isobutyl-(2-methylamino-benzothiazole-6-sulfonyl)-amino]-propyl}-carbamic acid thiazol-5-ylmethyl ester trifluoroacetate], the EC50 with HIV-1 strain LAI (setting [3]) was 3.09 nM. Further, the “pEC50 Strain A” value in the series on mutant HIV strain A (mutant HIV strain A, MT4 cells) came out at 7.36. The “pEC50 Strain B” value in the series on mutant HIV strain B (mutant HIV strain B, MT4 cells) was found to be 7.80. Also, in the series with mutant HIV strain C (mutant HIV strain C, MT4 cells), the “pEC50 Strain C” value was 7.88. Further, in the series with mutant HIV strain D (mutant HIV strain D, MT4 cells), the “pEC50 Strain D” value came to 7.43. Besides, in the series with mutant HIV strain E (mutant HIV strain E, MT4 cells), the “pEC50 Strain E” value amounted to 7.90. In addition, the “pEC50 Strain F” value in the series on mutant HIV strain F (mutant HIV strain F, MT4 cells) is listed as 6.80.

As to `CNc1nc2ccc(S(=O)(=O)N(CC(C)C)C[C@@H](O)[C@H](Cc3ccccc3)NC(=O)c3cccc(O)c3C)cc2s1` [Compound 23, N-{(1S,2R)-1-benzyl-2-hydroxy-3-[isobutyl-(2-methylamino-benzothiazole-6-sulfonyl)-amino]-propyl}-3-hydroxy-2-methyl-benzamide trifluoroacetate], the EC50 with HIV-1 strain LAI (setting [3]) is 4.57 nM; in the series with mutant HIV strain A it was 288 nM; with mutant HIV strain B, 9.55 nM; in the series with mutant HIV strain C, 8.71 nM; in the series with mutant HIV strain D it was 21.4 nM; in the series on mutant HIV strain E it was 7.24 nM. Besides, the CC50 at 5 days in series [1] is 69200 nM.

Turning to `CC(C)CN(C[C@@H](O)[C@H](Cc1ccccc1)NC(=O)OCc1cccnc1)S(=O)(=O)c1ccc2nc(N)sc2c1` [Compound 9, {(1S,2R)-3-[(2-amino-benzothiazole-6-sulfonyl)-isobutyl-amino]-1-benzyl-2-hydroxypropyl}-carbamic acid pyridin-3-ylmethyl ester], the EC50 in the series with HIV-1 strain LAI (setting [2]) was 4.9 nM. In the series on mutant HIV strain A, the “fold resistance Strain A” value is 53.7 and the EC50 was 263 nM. In the series with mutant HIV strain B, the “fold resistance Strain B” value was 1.1 and the EC50 was 5.62 nM. Besides, in the series on mutant HIV strain C, the “fold resistance Strain C” value turned out to be 1000.0 and the EC50 is 4900 nM. For the same compound, in the series on mutant HIV strain D, the “fold resistance Strain D” value is 8.5 and the EC50 was 41.7 nM. Moreover, in the series on mutant HIV strain E, the “fold resistance Strain E” value is listed as 4.9 and the EC50 was 24 nM. In addition, in series [1], the CC50 at 5 days is 51300 nM.

Consider `Cc1ccccc1C(=O)N[C@@H](Cc1ccccc1)[C@H](O)CN(CC(C)C)S(=O)(=O)c1ccc2nc(N)sc2c1` [Compound 14, N-{(1S,2R)-3-[(2-amino-benzothiazole-6-sulfonyl)-isobutyl-amino]-1-benzyl-2-hydroxypropyl}-2-methyl-benzamide], for which the EC50 with HIV-1 strain LAI (setting [2]) is 3.8 nM. Further, in the series on mutant HIV strain A, the “fold resistance Strain A” value turned out to be 234.4 and the EC50 is 891 nM. Moreover, in the series with mutant HIV strain B, the “fold resistance Strain B” value was 7.1 and the EC50 is 26.9 nM. In the series on mutant HIV strain C, the “fold resistance Strain C” value was 46.8 and the EC50 is 178 nM. Also, in the series with mutant HIV strain D, the “fold resistance Strain D” value was 10.5 and the EC50 is 39.8 nM. For the same compound, in the series on mutant HIV strain E, the “fold resistance Strain E” value is listed as 7.9 and the EC50 was 30.2 nM. The 50% cytotoxic concentration (CC50) at 5 days in series [1] is 46800 nM.
